# Measurements: ChEMBL document CHEMBL1156024, “The first Hes1 dimer inhibitors from natural products” (Bioorg Med Chem Lett, 2009)
# Activity calls are given as the source filed them. The rule behind the calls is not given here.
# Target: T1, Transcription factor HES-1 (Mus musculus, UniProt P35428)
# T1 sequence (P35428 whole entry): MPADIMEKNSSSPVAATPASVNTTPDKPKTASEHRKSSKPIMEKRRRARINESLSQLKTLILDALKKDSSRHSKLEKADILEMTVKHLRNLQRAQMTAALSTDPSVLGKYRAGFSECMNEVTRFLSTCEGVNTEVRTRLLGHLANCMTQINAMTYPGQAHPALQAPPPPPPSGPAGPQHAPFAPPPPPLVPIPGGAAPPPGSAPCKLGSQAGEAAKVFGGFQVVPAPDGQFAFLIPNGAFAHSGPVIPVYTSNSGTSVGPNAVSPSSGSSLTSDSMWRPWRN
# Assay: Inhibition of Cy3-labeled mouse recombinant Hes1 (3-281) dimer formation expressed in Escherichia coli by microplate-based assay
# Conditions: not given
row,Structure (SMILES),IC50 [µM]
1,COc1cc([C@H]2c3c(cc(OC)c(O)c3OC)C[C@@H](CO)[C@@H]2CO[C@@H]2OC[C@@H](O)[C@H](O)[C@H]2O)cc(OC)c1O [LYONISIDE],48.1
2,O=C(O)c1[nH]c(C(=O)O)c(-c2c[nH]c3ccccc23)c1-c1c[nH]c2ccccc12 [LYCOGALIC ACID A],6
3,CCCC(=O)/C=C/C1=C(O)C(=O)c2cc(O)c(O)cc2C1=O [LINDBLADIONE],4.1
4,COC(=O)c1[nH]c(C(=O)OC)c(-c2c[nH]c3ccc(O)cc23)c1-c1c[nH]c2ccccc12 [LYCOGARUBIN B],16.5
5,COc1cc([C@@H]2c3c(cc(OC)c(O)c3OC)C[C@H](CO)[C@H]2CO[C@@H]2OC[C@@H](O)[C@H](O)[C@H]2O)cc(OC)c1O [NUDIPOSIDE],9.6
6,C/C=C1/[C@H]2OC=C(C(=O)O)[C@H]1CC(=O)OC[C@H](c1ccc(O)c(O)c1)OC[C@H]1O[C@@H](O2)[C@H](O)[C@@H](O)[C@@H]1O,7.8

# Target: T2, Transcription factor HES-1 (Mus musculus) (UniProt P35428)
# T2 sequence (whole entry): T1 sequence (P35428 whole entry)
# Assay: Inhibition of Cy3-labeled mouse recombinant Hes1 (3-281) dimer formation expressed in Escherichia coli at 100 uM by microplate-based assay
# Conditions: not given
row,Structure (SMILES),inhibition
1,COC(=O)c1[nH]c(C(=O)OC)c(-c2c[nH]c3ccccc23)c1-c1c[nH]c2ccccc12,inactive
2,O=C1NCc2c1c1c3ccccc3[nH]c1c1[nH]c3ccccc3c21,inactive
3,COC(=O)c1[nH]c(C(=O)O)c(-c2c[nH]c3ccccc23)c1-c1c[nH]c2ccccc12,inactive

# Target: T2, Transcription factor HES-1 (Mus musculus)
# Conditions: C3H 10T1/2, 50 uM
# Description: Inhibition of mouse Hes1-mediated suppression of basic helix-loop-helix activator genes in C3H10T1/2 cells at 50 uM by luciferase transactivation assay
row,Structure (SMILES),inhibition [%]
1,O=C(O)c1[nH]c(C(=O)O)c(-c2c[nH]c3ccccc23)c1-c1c[nH]c2ccccc12 [LYCOGALIC ACID A],60
2,CCCC(=O)/C=C/C1=C(O)C(=O)c2cc(O)c(O)cc2C1=O [LINDBLADIONE],60
